≈ marks a conversion by molar mass, not a printed value.
Test: Solubility in PBS
Assay type: physicochemical
Settings: not given
Procedure: After ultracentrifugation of the PBS solution, the supernatant was analyzed by HPLC and compared to an HPLC injection 50 μM peptide DMSO solution. Solubility was determined by: [(Area of PBS peak)/(Area of DMSO peak)]*50 uM.

| SMILES | Solubility [µM] |
| --- | --- |
| CC(=O)N1CCC[C@]12CC=CCCCC1(CCCC=CCCCOC(=O)N3CC[C@@](C(=O)N[C@@H](Cc4ccccc4)C(=O)N[C@@H](Cc4csc5ccccc45)C(=O)N[C@@H](CCC(N)=O)C(N)=O)(C3)NC(=O)[C@H](CC(C)C)NC(=O)[C@H](Cc3ccccc3)NC(=O)[C@H](C)NC(=O)[C@H](CCCCNC(C)C)NC(=O)[C@H]([C@@H](C)O)NC(=O)[C@H](CC(=O)O)NC1=O)NC(=O)[C@H](CC(C)(C)C)NC(=O)[C@H](CC(N)=O)NC2=O (single isomer, unassigned) [I-1289, Ac-PL3-Asn-Npg-B5-Asp-Thr-iPrLys-Ala-Phe-Leu-PyrS2-Phe-BztA-Gln-NH2] | 10 (≈ 20 µg/mL) |
| CC(=O)N1CCC[C@]12CC=CCCCC1(CCCC=CCCCOC(=O)N3CC[C@@](C(=O)N[C@@H](Cc4ccccc4)C(=O)N[C@@H](Cc4ccc5ccccc5c4)C(=O)N[C@@H](CCC(N)=O)C(N)=O)(C3)NC(=O)[C@H](CC(C)C)NC(=O)[C@H](Cc3ccccc3)NC(=O)[C@H](C)NC(=O)[C@H](C)NC(=O)[C@H]([C@@H](C)O)NC(=O)[C@H](CC(=O)O)NC1=O)NC(=O)[C@H](CC(C)(C)C)NC(=O)[C@H](CC(N)=O)NC2=O (single isomer, unassigned) [I-1292, Ac-PL3-Asn-Npg-B5-Asp-Thr-Ala-Ala-Phe-Leu-PyrS2-Phe-2NapA-Gln-NH2] | 10 (≈ 18.9 µg/mL) |
| CC(=O)N1CCC[C@]12CC=CCCCC1(CCCC=CCCCOC(=O)N3CC[C@@](C(=O)N[C@@H](Cc4ccccc4)C(=O)N[C@@H](Cc4csc5ccccc45)C(=O)N[C@@H](CCC(N)=O)C(N)=O)(C3)NC(=O)[C@H](CC(C)C)NC(=O)[C@H](Cc3ccccc3)NC(=O)[C@H](C)NC(=O)[C@H](C)NC(=O)[C@H]([C@@H](C)O)NC(=O)[C@H](CC(=O)O)NC1=O)NC(=O)[C@H](C)NC(=O)[C@H](CC(N)=O)NC2=O (single isomer, unassigned) [I-1287, Ac-PL3-Asn-Ala-B5-Asp-Thr-Ala-Ala-Phe-Leu-PyrS2-Phe-BztA-Gln-NH2] | 10 (≈ 18.4 µg/mL) |
| CC(=O)N1CCC[C@]12CC=CCCCC1(CCCC=CCCCOC(=O)N3CC[C@@](C(=O)N[C@@H](Cc4ccccc4)C(=O)N[C@@H](Cc4csc5ccccc45)C(=O)N[C@@H](CCC(N)=O)C(N)=O)(C3)NC(=O)[C@H](CC(C)C)NC(=O)[C@H](Cc3ccccc3)NC(=O)[C@H](C)NC(=O)[C@H](C)NC(=O)[C@H]([C@@H](C)O)NC(=O)[C@H](CC(N)=O)NC1=O)NC(=O)[C@H](C)NC(=O)[C@H](CC(=O)O)NC2=O (single isomer, unassigned) [I-1295, Ac-PL3-Asp-Ala-B5-Asn-Thr-Ala-Ala-Phe-Leu-PyrS2-Phe-BztA-Gln-NH2] | 10 (≈ 18.4 µg/mL) |
| CC(=O)N1CCC[C@]12CC=CCCCC1(CCCC=CCCCOC(=O)N3CC[C@@](C(=O)N[C@@H](Cc4ccccc4)C(=O)N[C@@H](Cc4csc5ccccc45)C(=O)N[C@@H](CCC(N)=O)C(N)=O)(C3)NC(=O)[C@H](CC(C)C)NC(=O)[C@H](Cc3ccccc3)NC(=O)[C@H](C)NC(=O)[C@H](C)NC(=O)[C@H]([C@@H](C)O)NC(=O)[C@H](CC(=O)O)NC1=O)NC(=O)[C@H](CC(C)(C)C)NC(=O)[C@H](CC(N)=O)NC2=O (single isomer, unassigned) [I-1284, Ac-PL3-Asn-Npg-B5-Asp-Thr-Ala-Ala-Phe-Leu-PyrS2-Phe-BztA-Gln-NH2] | 10 (≈ 19 µg/mL) |
| CC(=O)N1CCC[C@]12CC=CCCCC1(CCCC=CCCCOC(=O)N3CC[C@@](C(=O)N[C@@H](Cc4ccccc4C(F)(F)F)C(=O)N[C@@H](Cc4csc5ccccc45)C(=O)N[C@@H](CO)C(N)=O)(C3)NC(=O)[C@H](CC(C)C)NC(=O)[C@H](Cc3ccccc3)NC(=O)[C@H](C)NC(=O)[C@H](C)NC(=O)[C@H](Cc3cccc(C(=O)O)c3)NC(=O)[C@H](CC(=O)O)NC1=O)NC(=O)[C@H](CC(C)(C)C)NC(=O)[C@H](CC(=O)O)NC2=O (stereo partly drawn) [I-1336, PL3-Asp-Npg-B5-Asp-3COOHF-Ala-Ala-Phe-Leu-PyrS2-2F3MeF-BztA-Ser-NH2] | 10 (≈ 20.1 µg/mL) |
| CC(=O)N1CCC[C@]12CC=CCCCC1(CCCC=CCCCOC(=O)N3CC[C@@](C(=O)N[C@@H](Cc4ccccc4)C(=O)N[C@@H](Cc4csc5ccccc45)C(=O)N[C@@H](CCC(N)=O)C(N)=O)(C3)NC(=O)[C@H](CC(C)C)NC(=O)[C@H](Cc3ccccc3)NC(=O)[C@H](C)NC(=O)[C@H](C)NC(=O)[C@H]([C@@H](C)O)NC(=O)[C@H](CC(N)=O)NC1=O)NC(=O)[C@H](CC(C)(C)C)NC(=O)[C@H](CC(=O)O)NC2=O (stereo partly drawn) [I-1294, Ac-PL3-Asp-Npg-B5-Asn-Thr-Ala-Ala-Phe-Leu-PyrS2-Phe-BztA-Gln-NH2] | 10 (≈ 19 µg/mL) |
| CC(=O)N1CCC[C@]12CC=CCCCC1(CCCC=CCCCOC(=O)N3CC[C@@](C(=O)N[C@@H](Cc4ccccc4Cl)C(=O)N[C@@H](Cc4csc5ccccc45)C(=O)N[C@H](CO)[C@@H](C)O)(C3)NC(=O)[C@H](CC(C)C)NC(=O)[C@H](Cc3ccccc3)NC(=O)[C@H](C)NC(=O)[C@H](C)NC(=O)[C@H](Cc3cccc(C(=O)O)c3)NC(=O)[C@H](CC(=O)O)NC1=O)NC(=O)[C@H](CC(C)(C)C)NC(=O)[C@H](CC(=O)O)NC2=O (stereo partly drawn) [I-1334, PL3-Asp-Npg-B5-Asp-3COOHF-Ala-Ala-Phe-Leu-PyrS2-2C1F-BztA-Thro1] | 10 (≈ 19.8 µg/mL) |
| CC(=O)N1CCC[C@]12CC=CCCCC1(CCCC=CCCCOC(=O)N3CC[C@@](C(=O)N[C@@H](Cc4ccccc4C(F)(F)F)C(=O)N[C@@H](Cc4csc5ccccc45)C(=O)N[C@H](CO)[C@@H](C)O)(C3)NC(=O)[C@H](CC(C)C)NC(=O)[C@H](Cc3ccccc3)NC(=O)[C@H](C)NC(=O)[C@H](C)NC(=O)[C@H](Cc3cccc(C(=O)O)c3)NC(=O)[C@H](CC(=O)O)NC1=O)NC(=O)[C@H](CC(C)(C)C)NC(=O)[C@H](CC(=O)O)NC2=O (stereo partly drawn) [I-1337, PL3-Asp-Npg-B5-Asp-3COOHF-Ala-Ala-Phe-Leu-PyrS2-2F3MeF-BztA-Thro1] | 10 (≈ 20.2 µg/mL) |

Now from value to compound:

| Solubility [µM] | SMILES |
| --- | --- |
| 50 (≈ 98.7 µg/mL) | CCN(CC)C(=O)[C@H](CCC(N)=O)NC(=O)[C@H](Cc1csc2ccccc12)NC(=O)[C@H](Cc1ccsc1)NC(=O)[C@]12CCN(C1)C(=O)OCCCC=CCCCC1(CCCC=CC[C@]3(CCCN3C(C)=O)C(=O)N[C@@H](CC(=O)O)C(=O)N[C@@H](CC(C)(C)C)C(=O)N1)C(=O)N[C@@H](CC(=O)O)C(=O)N[C@@H](CC(=O)O)C(=O)N[C@@H](C)C(=O)N[C@@H](C)C(=O)N[C@@H](Cc1ccccc1)C(=O)N[C@@H](CC(N)=O)C(=O)N2 (stereo partly drawn) [I-1373, PL3-Asp-Npg-B5-Asp-Asp-Ala-Ala-Phe-Asn-PyrS2-3Thi-BztA-Gln-NEt2] |
| 10 (≈ 20.6 µg/mL) | CC(=O)N1CCC[C@]12CC=CCCCC1(CCCC=CCCCOC(=O)N3CC[C@@](C(=O)N[C@@H](Cc4ccccc4Cl)C(=O)N[C@@H](Cc4csc5ccccc45)C(=O)N[C@@H](CCC(N)=O)C(N)=O)(C3)NC(=O)[C@H](Cc3ccccc3)NC(=O)[C@H](Cc3ccccc3)NC(=O)[C@H](C)NC(=O)[C@H](C)NC(=O)[C@H](Cc3cccc(C(=O)O)c3)NC(=O)[C@H](CC(=O)O)NC1=O)NC(=O)[C@H](CC(C)(C)C)NC(=O)[C@H](CC(=O)O)NC2=O (stereo partly drawn) [I-1338, PL3-Asp-Npg-B5-Asp-3COOHF-Ala-Ala-Phe-Phe-PyrS2-2C1F-BztA-Gln-NH2] |

Same assay, conditions: Solubility (uM)

| SMILES | solubility at 15 min [µM] |
| --- | --- |
| CC(=O)N1CCC[C@]12CC=CCCCC1(CCCC=CCCCOC(=O)N3CC[C@@](C(=O)N[C@@H](Cc4ccsc4)C(=O)N[C@@H](Cc4csc5ccccc45)C(=O)N[C@@H](CCC(N)=O)C(N)=O)(C3)NC(=O)[C@H](CC(C)C)NC(=O)[C@H](Cc3ccccc3)NC(=O)[C@H](C)NC(=O)[C@H](C)NC(=O)[C@H](CC(=O)O)NC(=O)[C@H](CCN)NC1=O)NC(=O)[C@H](CC(C)(C)C)NC(=O)[C@H](CC(=O)O)NC2=O (stereo partly drawn) [I-1217, Ac-PL3-Asp-Npg-B5-Dab-Asp-Ala-Ala-Phe-Leu-PyrS2-3Thi-BztA-Gln-NH2] | 15 (≈ 28.5 µg/mL) |
| CC(=O)N1CCC[C@]12CC=CCCCC1(CCCC=CCCCOC(=O)N3CC[C@@](C(=O)N[C@@H](Cc4ccccc4Br)C(=O)N[C@@H](Cc4csc5ccccc45)C(=O)N[C@@H](CCC(N)=O)C(N)=O)(C3)NC(=O)[C@H](Cc3ccccc3)NC(=O)[C@H](Cc3ccccc3)NC(=O)[C@H](C)NC(=O)[C@H](C)NC(=O)[C@H](CC(=O)O)NC(=O)[C@H](CC(=O)O)NC1=O)NC(=O)[C@H](CC(C)(C)C)NC(=O)[C@H](CC(=O)O)NC2=O (stereo partly drawn) [I-1325, PL3-Asp-Npg-B5-Asp-Asp-Ala-Ala-Phe-Phe-PyrS2-2BrF-BztA-Gln-NH2] | 12 (≈ 24.3 µg/mL) |

Results, then the compound that gave them:

| solubility at 15 min [µM] | SMILES |
| --- | --- |
| 28 (≈ 53.9 µg/mL) | CC(=O)N1CCC[C@]12CC=CCCCC1(CCCC=CCCCOC(=O)N3CC[C@@](C(=O)N[C@@H](CCc4ccccc4)C(=O)N[C@@H](Cc4csc5ccccc45)C(=O)N[C@@H](CCC(N)=O)C(N)=O)(C3)NC(=O)[C@H](CC(C)C)NC(=O)[C@H](Cc3ccccc3)NC(=O)[C@H](C)NC(=O)[C@H](C)NC(=O)[C@H](CC(=O)O)NC(=O)[C@H](CC(=O)O)NC1=O)NC(=O)[C@H](CC(C)(C)C)NC(=O)[C@H](CC(=O)O)NC2=O (stereo partly drawn) [I-1350, PL3-Asp-Npg-B5-Asp-Asp-Ala-Ala-Phe-Leu-PyrS2-hPhe-BztA-Gln-NH2] |
| 44 (≈ 83.7 µg/mL) | CC(=O)N1CCC[C@]12CC=CCCCC1(CCCC=CCCCOC(=O)N3CC[C@@](C(=O)N[C@@H](CC4CCCC4)C(=O)N[C@@H](Cc4csc5ccccc45)C(=O)N[C@@H](CCC(N)=O)C(N)=O)(C3)NC(=O)[C@H](CC(C)C)NC(=O)[C@H](Cc3ccccc3)NC(=O)[C@H](C)NC(=O)[C@H](C)NC(=O)[C@H](CC(=O)O)NC(=O)[C@H](CC(=O)O)NC1=O)NC(=O)[C@H](CC(C)(C)C)NC(=O)[C@H](CC(=O)O)NC2=O (stereo partly drawn) [I-1353, PL3-Asp-Npg-B5-Asp-Asp-Ala-Ala-Phe-Leu-PyrS2-CypA-BztA-Gln-NH2] |
| 48 (≈ 90.6 µg/mL) | COCCC(=O)N1CCC[C@]12CC=CCCCC1(CCCC=CCCCOC(=O)N3CC[C@@](C(=O)N[C@@H](Cc4ccccc4)C(=O)N[C@@H](Cc4csc5ccccc45)C(=O)N[C@@H](CO)C(N)=O)(C3)NC(=O)[C@H](CO)NC(=O)[C@H](Cc3ccccc3)NC(=O)[C@H](C)NC(=O)[C@H](C)NC(=O)[C@H](CC(=O)O)NC(=O)[C@H](CC(=O)O)NC1=O)NC(=O)[C@H](CC(C)(C)C)NC(=O)[C@H](CC(=O)O)NC2=O (stereo partly drawn) [I-1357, PL3-Asp-Npg-B5-Asp-Asp-Ala-Ala-Phe-Ser-PyrS2-Phe-BztA-Ser-NH2] |

— patent publication US20240116985A1, “STAPLED PEPTIDES AND METHODS THEREOF” (priority 2020, published 2024)
